Reference: ChEMBL document CHEMBL5226347, “Discovery of Chromane-6-Sulfonamide Derivative as a Potent, Selective, and Orally Available Novel Retinoic Acid Receptor-Related Orphan Receptor γt Inverse Agonist” (J Med Chem, 2021)
≈ marks a conversion by molar mass, not a printed value. Calls of active or inactive are those of the source. No cut-off for these calls is given here.

Assays:
[1] = system: Mus musculus; assay: Antiinflammatory activity against imiquimod-induced Balb/c mouse skin inflammation model assessed as reduction in skin thickening at 5 to 20 mg/kg, po BID for 13 days; assay type: functional, organism-based; conditions: dose 5-20 mg/kg, time 13.0 day
[2] = Tmax in mouse at 1 mg/kg, po measured at 5 to 1440 mins by LC-MS analysis; assay type: ADME, organism-based; conditions: in vivo, time 5-1440 min
[3] = Volume of distribution at steady state in mouse at 0.3 mg/kg, iv measured at 2 to 1440 mins by LC-MS analysis; assay type: ADME, organism-based; conditions: in vivo, time 2-1440 min, read-out: Vdss
[4] = Metabolic stability in human liver microsomes assessed as half life incubated for 5 to 30 mins by HPLC-MS/MS analysis; assay type: ADME, Microsome; conditions: microsomes, time 5-30 min
[5] = Cmax in mouse at 1 mg/kg, po measured at 5 to 1440 mins by LC-MS analysis; assay type: ADME, organism-based; design: time upper 1440 min, time lower 5 min, dose 1 mg/kg, route po; conditions: in vivo
[6] = Metabolic stability in human liver microsomes assessed as parent compound remaining measured at 60 mins by HPLC-MS/MS analysis; assay type: ADME, Microsome; conditions: 1 h
[7] = system: Mus musculus; assay: Antiinflammatory activity against imiquimod-induced Balb/c mouse skin inflammation model assessed as reduction in scaling at 5 to 20 mg/kg, po BID for 13 days; assay type: functional, organism-based; conditions: dose 5-20 mg/kg, time 13.0 day
[8] = Half life in mouse at 1 mg/kg, po measured at 5 to 1440 mins by LC-MS analysis; assay type: ADME, organism-based; conditions: in vivo, time 5-1440 min
[9] = system: Mus musculus; assay: Antiinflammatory activity against imiquimod-induced Balb/c mouse skin inflammation model assessed as decrease in erythema at 5 to 20 mg/kg, po BID for 13 days; assay type: functional, organism-based; conditions: dose 5-20 mg/kg, time 13.0 day
[10] = AUC (0 to t) in mouse at 0.3 mg/kg, iv measured at 2 to 1440 mins by LC-MS analysis; assay type: ADME, organism-based; design: time lower 2 min, dose 0.3 mg/kg, time upper 1440 min, route iv; conditions: in vivo
[11] = system: Mus musculus; assay: Antiinflammatory activity against imiquimod-induced Balb/c mouse skin inflammation model assessed as inhibition of IL-17A level at 20 mg/kg, po measured for 13 days; assay type: functional; design: scale not given: the % may be the effect or the level left; conditions: time 13 day
[12] = Clearance in mouse at 0.3 mg/kg, iv measured at 2 to 1440 mins by LC-MS analysis; assay type: ADME, organism-based; conditions: in vivo, time 2-1440 min
[13] = Half life in mouse at 0.3 mg/kg, iv measured at 2 to 1440 mins by LC-MS analysis; assay type: ADME, organism-based; conditions: in vivo, time 2-1440 min
[14] = Tmax in mouse at 0.3 mg/kg, iv measured at 2 to 1440 mins by LC-MS analysis; assay type: ADME, organism-based; conditions: in vivo, time 2-1440 min
[15] = AUC (0 to infinity) in mouse at 0.3 mg/kg, iv measured at 2 to 1440 mins by LC-MS analysis; assay type: ADME, organism-based; design: dose 0.3 mg/kg, time 2-1440 min, route iv; conditions: in vivo
[16] = Cmax in mouse at 0.3 mg/kg, iv measured at 2 to 1440 mins by LC-MS analysis; assay type: ADME, organism-based; design: time 2-1440 min, dose 0.3 mg/kg, route iv; conditions: in vivo
[17] = system: Mus musculus; assay: Antiinflammatory activity against imiquimod-induced Balb/c mouse skin inflammation model assessed as inhibition of IL-6 level at 20 mg/kg, po measured for 13 days; assay type: functional; design: scale not given: the % may be the effect or the level left; conditions: time 13 day
[18] = system: Mus musculus; assay: Antiinflammatory activity against imiquimod-induced Balb/c mouse skin inflammation model assessed as reduction in total psoriasis area at 20 mg/kg, po BID for 13 days; assay type: functional, organism-based; conditions: time 13.0 day
[19] = Solubility of compound in aqueous buffer at pH 7.4; assay type: physicochemical
[20] = Lipophilicity, log D of the compound at pH 7.4; assay type: physicochemical; conditions: buffer
[21] = Toxicity in Balb/c mouse assessed as inflammatory cell infiltration at 10 to 20 mg/kg, po administered for 13 days; assay type: organism-based; conditions: in vivo, 312 h, dose 10-20 mg/kg, time 13 day
[22] = system: Mus musculus; assay: Antiinflammatory activity against imiquimod-induced Balb/c mouse skin inflammation model assessed as reduction in severity index score at 20 mg/kg, po BID for 13 days; assay type: functional; design: scale not given: the % may be the effect or the level left; conditions: time 13 day
[23] = Toxicity in Balb/c mouse assessed as body weight loss at 5 to 20 mg/kg, po administered for 12 days; assay type: organism-based; conditions: in vivo, 288 h, dose 5-20 mg/kg, time 12 day
[24] = Oral bioavailability in mouse at 1 mg/kg measured at 5 to 1440 mins by LC-MS analysis; assay type: ADME, organism-based; conditions: in vivo, time 5-1440 min
[25] = Metabolic stability in human liver assessed as intrinsic clearance incubated for 5 to 30 mins by HPLC-MS/MS analysis; assay type: ADME, tissue-based; conditions: liver (preparation not stated), time 5-30 min, read-out: CLH
[26] = biological target: T1, Nuclear receptor ROR-beta (Homo sapiens, UniProt Q92753); assay: Inhibition of human GAL4-fused RORbeta LBD transfected in HEK293T cell measured for 16 to 20 hrs by dual-glo luciferase assay; assay type: cell-based
T1 sequence (Q92753 whole entry): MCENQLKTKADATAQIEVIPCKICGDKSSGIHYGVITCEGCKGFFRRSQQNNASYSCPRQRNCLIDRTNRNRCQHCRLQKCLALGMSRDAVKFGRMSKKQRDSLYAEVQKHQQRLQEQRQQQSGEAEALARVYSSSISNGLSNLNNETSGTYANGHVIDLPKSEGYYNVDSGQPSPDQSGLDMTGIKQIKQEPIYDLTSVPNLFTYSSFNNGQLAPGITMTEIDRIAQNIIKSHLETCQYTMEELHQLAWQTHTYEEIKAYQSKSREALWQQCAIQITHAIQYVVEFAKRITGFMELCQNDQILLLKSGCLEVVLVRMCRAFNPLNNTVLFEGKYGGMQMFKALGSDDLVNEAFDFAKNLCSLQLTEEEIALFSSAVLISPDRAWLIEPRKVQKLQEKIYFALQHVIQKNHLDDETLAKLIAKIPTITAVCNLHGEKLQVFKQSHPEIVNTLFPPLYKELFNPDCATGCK

[27] = AUC (0 to infinity) in mouse at 1 mg/kg, po measured at 5 to 1440 mins by LC-MS analysis; assay type: ADME, organism-based; design: dose 1 mg/kg, time 5-1440 min, route po; conditions: in vivo
[28] = AUC (0 to t) in mouse at 1 mg/kg, po measured at 5 to 1440 mins by LC-MS analysis; assay type: ADME, organism-based; design: time 5-1440 min, dose 1 mg/kg, route po; conditions: in vivo
[29] = system: Mus musculus; assay: Antiinflammatory activity against imiquimod-induced Balb/c mouse skin inflammation model assessed as decrease in skin thickening at 10 to 20 mg/kg, po measured for 13 days; assay type: functional, organism-based; conditions: dose 10-20 mg/kg, time 13.0 day

Tmax [2]: 2.32 h | Vd [3]: 1.54 L/kg | t1/2 [4]: 0.817 h | Cmax [5]: 94 ng/mL | Stability [6]: 45.1% | half-life [8]: 1.32 h | AUC(0-t) [10]: 153 ng·h/mL | clearance [12]: 38.6 mL/min/kg | half-life [13]: 0.87 h | Tmax [14]: 1.52 h | AUC(0-inf) [15]: 163 ng·h/mL | Cmax [16]: 83 ng/mL | solubility [19]: 8.68 µg/mL (≈ 18.4 µM) | logD [20]: 3.69 | bioavailability [24]: 55% | CLint scaled [25]: 27.1 mL/min/kg | IC50 [26]: > 10 µM | AUC(0-inf) [27]: 298 ng·h/mL | AUC(0-t) [28]: 285 ng·h/mL
Structure (SMILES): CCc1ccc(N(C2CCC2)S(=O)(=O)c2ccc3c(c2)C(O)CC(C2CCOCC2)O3)cc1 (centres undefined)
Activity [1]: Active | Activity [7]: Active | Activity [9]: Active | Activity [11]: 37.6% | Activity [17]: 71.9% | Activity [18]: Active | Activity [21]: Non-Toxic | Activity [22]: 70.5% | Activity [23]: Non-Toxic | Activity [29]: inactive
